Data as given in patent US10570184B2, “GLP-1/glucagon receptor co-agonists for medical use” (Novo Nordisk A/S, priority 2014, dated 2020).
Starred links: 1 amine or outer side, 2 acyl side, 3 side chain; linkers in the order of their positions; H or OH if unused. Non-standard residues stand in square brackets, D forms with d. Residues, ends and D or L forms follow the SMILES beside them. Groups on a side chain read outwards from the residue. *: point of attachment. C18 diacid = O=C(O)CCCCCCCCCCCCCCCCC(=O)*; γGlu = O=C(O)[C@H](CCC(=O)[*:2])N[*:1]; Ac4c = NC1(C(=O)O)CCC1; AEEA = NCCOCCOCC(=O)O; Aib = CC(C)(N)C(=O)O

Key:
human GLP-1 receptor = target: T1, human GLP-1 receptor (Homo sapiens, UniProt P43220); experiment: Assay (I)(a) GLP-1 receptor activation, CRE luciferase reporter gene assay in BHK cells; assay type: cell-based; details: without presence of serum albumin; read-out: GLP-1R EC50 (pM) [Assay (I)(a)]
T1 construct: expressed in transfected cells; host or cells: membranes of BHK cells (parent BHKTS13), clone FCW467-12A
In short: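 Stable BHK clone expressing human GLP-1 receptor with CRE-driven firefly luciferase, 5×10EE3 cells/well in medium with 2% ovalbumin and 0.2% Pluronic F-68. Compounds at 1×10EE-13 to 1×10EE-6 M final, 3 h at 37° C.; luminescence read, EC50 (pM) from four-parameter fit.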

[1] = Assay (III) ThT fibrillation assay for physical stability; assay type: physicochemical; details: 250 μM in 10 mM HEPES buffer, 37° C., shaking 960 rpm
In short: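 Glucagon derivative at 250 μM in 10 mM HEPES pH 7.5 with 1 μM ThT was incubated at 37 °C under 960 rpm orbital shaking. Fluorescence (ex 444/em 485 nm) was read every 20 min and fitted for lag time (t0−2τ) and kapp (1/τ). Recovery was soluble peptide after centrifugation/filtration, by RP-HPLC, as percent of initial.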

T1 sequence (P43220 24-463): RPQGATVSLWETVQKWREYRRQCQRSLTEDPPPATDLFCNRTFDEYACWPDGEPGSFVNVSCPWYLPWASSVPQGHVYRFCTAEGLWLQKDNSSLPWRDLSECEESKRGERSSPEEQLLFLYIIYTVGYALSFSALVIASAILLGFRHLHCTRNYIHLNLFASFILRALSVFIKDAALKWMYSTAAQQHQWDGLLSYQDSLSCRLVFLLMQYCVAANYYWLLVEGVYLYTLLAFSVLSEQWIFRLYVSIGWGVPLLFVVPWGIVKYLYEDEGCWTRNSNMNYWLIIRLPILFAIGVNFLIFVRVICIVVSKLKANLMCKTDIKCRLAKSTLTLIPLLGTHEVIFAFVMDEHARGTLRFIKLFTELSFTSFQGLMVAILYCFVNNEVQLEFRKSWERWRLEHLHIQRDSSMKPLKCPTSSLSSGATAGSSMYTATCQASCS

| EC50 (human GLP-1 receptor) [pM] | ThT Assay Lag time (h) [Assay (III), pH 7.5] [1] [h] | SMILES |
| --- | --- | --- |
| 2 | 45.0 | CC[C@H](C)[C@H](NC(=O)[C@H](CC(=O)O)NC(=O)[C@H](CO)NC(=O)[C@@H](NC(=O)[C@H](Cc1ccccc1)NC(=O)[C@@H](NC(=O)CNC(=O)[C@H](CCC(N)=O)NC(=O)C1(NC(=O)[C@@H](N)Cc2c[nH]cn2)CCC1)[C@@H](C)O)[C@@H](C)O)C(=O)N[C@@H](CO)C(=O)N[C@@H](CCCCN)C(=O)N[C@@H](Cc1ccc(O)cc1)C(=O)N[C@@H](CC(C)C)C(=O)N[C@@H](CCC(=O)O)C(=O)N[C@@H](CO)C(=O)N[C@@H](CCCNC(=N)N)C(=O)N[C@@H](CCCNC(=N)N)C(=O)N[C@@H](C)C(=O)N[C@@H](CCCNC(=N)N)C(=O)N[C@@H](CCC(=O)O)C(=O)N[C@@H](Cc1ccccc1)C(=O)N[C@H](C(=O)N[C@@H](CCC(N)=O)C(=O)N[C@@H](Cc1c[nH]c2ccccc12)C(=O)N[C@@H](CC(C)C)C(=O)N[C@H](C(=O)N[C@@H](CCCCNC(=O)CC[C@H](NC(=O)CC[C@H](NC(=O)COCCOCCNC(=O)COCCOCCNC(=O)CC[C@H](NC(=O)CC[C@H](NC(=O)CCCCCCCCCCCCCCCCC(=O)O)C(=O)O)C(=O)O)C(=O)O)C(=O)O)C(=O)N[C@H](C(N)=O)[C@@H](C)O)[C@@H](C)CC)C(C)C [Chem. 26, N^ε28-[(4S)-4-carboxy-4-[[(4S)-4-carboxy-4-[[2-[2-[2-[[2-[2-[2-[[(4S)-4-carboxy-4-[[(4S)-4-carboxy-4-(17-carboxyheptadecanoylamino)butanoyl]amino]butanoyl]amino]ethoxy]ethoxy]acetyl]amino]ethoxy]ethoxy]acetyl]amino]butanoyl]amino]butanoyl]-[Acb2,Ile10,Glu15,Arg20,Glu21,Ile27,Lys28]-Glucagon amide] (H-H[Ac4c]QGTFTSDISKYLESRRAREFVQWLIK([γGlu-γGlu-AEEA-AEEA-γGlu-γGlu-C18 diacid])T-NH2; N-terminus assumed) |
| 2 | 45.0 | CC[C@H](C)[C@H](NC(=O)[C@H](CC(C)C)NC(=O)[C@H](Cc1c[nH]c2ccccc12)NC(=O)[C@H](CCC(N)=O)NC(=O)[C@@H](NC(=O)[C@H](Cc1ccccc1)NC(=O)[C@H](CCC(=O)O)NC(=O)[C@H](CCC(N)=O)NC(=O)[C@H](C)NC(=O)[C@H](CCCNC(=N)N)NC(=O)[C@H](CCCNC(=N)N)NC(=O)[C@H](CO)NC(=O)[C@H](CCC(=O)O)NC(=O)[C@H](CC(C)C)NC(=O)[C@H](Cc1ccc(O)cc1)NC(=O)[C@H](CCCCN)NC(=O)[C@H](CO)NC(=O)[C@H](CC(C)C)NC(=O)[C@H](CC(=O)O)NC(=O)[C@H](CO)NC(=O)[C@@H](NC(=O)[C@H](Cc1ccccc1)NC(=O)[C@@H](NC(=O)CNC(=O)[C@H](CCC(N)=O)NC(=O)C1(NC(=O)[C@@H](N)Cc2c[nH]cn2)CCC1)[C@@H](C)O)[C@@H](C)O)C(C)C)C(=O)N[C@@H](CCCCNC(=O)CC[C@H](NC(=O)COCCOCCNC(=O)COCCOCCNC(=O)CC[C@H](NC(=O)CC[C@H](NC(=O)CCCCCCCCCCCCCCCCC(=O)O)C(=O)O)C(=O)O)C(=O)O)C(=O)N[C@H](C(N)=O)[C@@H](C)O [Chem. 38, N^ε28-[(4S)-4-carboxy-4-[[2-[2-[2-[[2-[2-[2-[[(4S)-4-carboxy-4-[[(4S)-4-carboxy-4-(17-carboxyheptadecanoylamino)butanoyl]amino]butanoyl]amino]ethoxy]ethoxy]acetyl]amino]ethoxy]ethoxy]acetyl]amino]butanoyl]-[Acb2,Leu10,Glu15,Glu21,Ile27,Lys28]-Glucagon amide] (H-H[Ac4c]QGTFTSDLSKYLESRRAQEFVQWLIK([γGlu-AEEA-AEEA-γGlu-γGlu-C18 diacid])T-NH2; N-terminus assumed) |

Second part, the molecule before the results:

| SMILES | EC50 (human GLP-1 receptor) [pM] | ThT Assay Lag time (h) [Assay (III), pH 7.5] [1] [h] |
| --- | --- | --- |
| CC[C@H](C)[C@H](NC(=O)[C@H](CC(C)C)NC(=O)[C@H](Cc1c[nH]c2ccccc12)NC(=O)[C@H](CCC(N)=O)NC(=O)[C@@H](NC(=O)[C@H](Cc1ccccc1)NC(=O)[C@H](CCC(=O)O)NC(=O)[C@H](CCCNC(=N)N)NC(=O)[C@H](C)NC(=O)[C@H](CCCNC(=N)N)NC(=O)[C@H](CCCNC(=N)N)NC(=O)[C@H](C)NC(=O)[C@H](CC(=O)O)NC(=O)[C@H](CC(C)C)NC(=O)[C@H](Cc1ccc(O)cc1)NC(=O)[C@H](CCCCN)NC(=O)[C@H](CO)NC(=O)[C@H](CC(C)C)NC(=O)[C@H](CC(=O)O)NC(=O)[C@H](CO)NC(=O)[C@@H](NC(=O)[C@H](Cc1ccccc1)NC(=O)[C@@H](NC(=O)CNC(=O)[C@H](CCC(N)=O)NC(=O)C(C)(C)NC(=O)[C@@H](N)Cc1c[nH]cn1)[C@@H](C)O)[C@@H](C)O)C(C)C)C(=O)N[C@@H](CO)C(=O)N[C@@H](CCCCNC(=O)CC[C@H](NC(=O)CC[C@H](NC(=O)COCCOCCNC(=O)COCCOCCNC(=O)CC[C@H](NC(=O)CCCCCCCCCCCCCCCCC(=O)O)C(=O)O)C(=O)O)C(=O)O)C(N)=O [Chem. 28, N^ε29-[(4S)-4-carboxy-4-[[(4S)-4-carboxy-4-[[2-[2-[2-[[2-[2-[2-[[(4S)-4-carboxy-4-(17-carboxyheptadecanoylamino)butanoyl]amino]ethoxy]ethoxy]acetyl]amino]ethoxy]ethoxy]acetyl]amino]butanoyl]amino]butanoyl]-[Aib2,Leu10,Ala16,Arg20,Glu21,Ile27,Ser28,Lys29]-Glucagon amide] (H-H[Aib]QGTFTSDLSKYLDARRAREFVQWLISK([γGlu-γGlu-AEEA-AEEA-γGlu-C18 diacid])-NH2; N-terminus assumed) | 3 | 45.0 |
| CC[C@H](C)[C@H](NC(=O)[C@H](CC(C)C)NC(=O)[C@H](Cc1c[nH]c2ccccc12)NC(=O)[C@H](CCC(N)=O)NC(=O)[C@@H](NC(=O)[C@H](Cc1ccccc1)NC(=O)[C@H](CC(=O)O)NC(=O)[C@H](CCCNC(=N)N)NC(=O)[C@H](C)NC(=O)[C@H](CCCNC(=N)N)NC(=O)[C@H](CCCNC(=N)N)NC(=O)[C@H](C)NC(=O)[C@H](CC(=O)O)NC(=O)[C@H](CC(C)C)NC(=O)[C@H](Cc1ccc(O)cc1)NC(=O)[C@H](CCCCN)NC(=O)[C@H](CO)NC(=O)[C@H](CC(C)C)NC(=O)[C@H](CC(=O)O)NC(=O)[C@H](CO)NC(=O)[C@@H](NC(=O)[C@H](Cc1ccccc1)NC(=O)[C@@H](NC(=O)CNC(=O)[C@H](CCC(N)=O)NC(=O)C(C)(C)NC(=O)[C@@H](N)Cc1c[nH]cn1)[C@@H](C)O)[C@@H](C)O)C(C)C)C(=O)N[C@@H](CO)C(=O)N[C@@H](CCCCNC(=O)CC[C@H](NC(=O)CC[C@H](NC(=O)COCCOCCNC(=O)COCCOCCNC(=O)CC[C@H](NC(=O)CCCCCCCCCCCCCCCCC(=O)O)C(=O)O)C(=O)O)C(=O)O)C(N)=O [Chem. 27, N^ε29-[(4S)-4-carboxy-4-[[(4S)-4-carboxy-4-[[2-[2-[2-[[2-[2-[2-[[(4S)-4-carboxy-4-(17-carboxyheptadecanoylamino)butanoyl]amino]ethoxy]ethoxy]acetyl]amino]ethoxy]ethoxy]acetyl]amino]butanoyl]amino]butanoyl]-[Aib2,Leu10,Ala16,Arg20,Ile27,Ser28,Lys29]-Glucagon amide] (H-H[Aib]QGTFTSDLSKYLDARRARDFVQWLISK([γGlu-γGlu-AEEA-AEEA-γGlu-C18 diacid])-NH2; N-terminus assumed) | 3 | 45.0 |
| CC[C@H](C)[C@H](NC(=O)[C@H](CC(C)C)NC(=O)[C@H](Cc1c[nH]c2ccccc12)NC(=O)[C@H](CCC(N)=O)NC(=O)[C@@H](NC(=O)[C@H](Cc1ccccc1)NC(=O)[C@H](CCC(=O)O)NC(=O)[C@H](CCCNC(=N)N)NC(=O)[C@H](C)NC(=O)[C@H](CCCNC(=N)N)NC(=O)[C@H](CCCNC(=N)N)NC(=O)[C@H](C)NC(=O)[C@H](CC(=O)O)NC(=O)[C@H](CC(C)C)NC(=O)[C@H](Cc1ccc(O)cc1)NC(=O)[C@H](CCCCN)NC(=O)[C@H](CO)NC(=O)[C@H](CC(C)C)NC(=O)[C@H](CC(=O)O)NC(=O)[C@H](CO)NC(=O)[C@@H](NC(=O)[C@H](Cc1ccccc1)NC(=O)[C@@H](NC(=O)CNC(=O)[C@H](CCC(N)=O)NC(=O)C(C)(C)NC(=O)[C@@H](N)Cc1c[nH]cn1)[C@@H](C)O)[C@@H](C)O)C(C)C)C(=O)N[C@@H](CC(N)=O)C(=O)N[C@@H](CCCCNC(=O)CC[C@H](NC(=O)CC[C@H](NC(=O)COCCOCCNC(=O)COCCOCCNC(=O)CC[C@H](NC(=O)CCCCCCCCCCCCCCCCC(=O)O)C(=O)O)C(=O)O)C(=O)O)C(N)=O [Chem. 21, N^ε29-[(4S)-4-carboxy-4-[[(4S)-4-carboxy-4-[[2-[2-[2-[[2-[2-[2-[[(4S)-4-carboxy-4-(17-carboxyheptadecanoylamino)butanoyl]amino]ethoxy]ethoxy]acetyl]amino]ethoxy]ethoxy]acetyl]amino]butanoyl]amino]butanoyl]-[Aib2,Leu10,Ala16,Arg20,Glu21,Ile27,Lys29]-Glucagon amide] (H-H[Aib]QGTFTSDLSKYLDARRAREFVQWLINK([γGlu-γGlu-AEEA-AEEA-γGlu-C18 diacid])-NH2; N-terminus assumed) | 3 | 45.0 |
